# Tests used:
# MOLM-13 (MLL-AF9) cells = assay: Combination proliferation study with Compound A2 (Cell Titer Glo, Chou-Talalay combination index); type: cell-based; conditions: 7 day cotreatment
# Procedure: (§1) The acute myelogenous leukemia cell lines MV4-11 (MLL-AF4) and MOLM-13 (MLL-AF9) were obtained from American Type Culture Collection (ATCC; Rockville, Md.) and Deutsche Sammlung von Mikroorganismen and Zellkulturen (DSMZ; Braunschweig, Germany) respectively.
# (§2) Initial proliferation studies were performed to determine the IC50 of a given compound in each cell line.
# (§3) Compounds were evaluated for synergy in the co-treatment phase by testing the compounds in a concentration range which was bracketed around their IC50 values. […] DMSO concentration was kept at 0.1% v/v.
# (§4) Further, strong synergism is achieved when the CI value falls below 0.3.
# MV4-11 (MLL-AF4) cells = assay: as above; type: cell-based; conditions: 7 day cotreatment
# Procedure: as §1, §2, §3, §4
smiles,measurement,setting,value
N[C@@H]1C[C@H]1c1ccccc1 (racemic) [Tranylcypromine],Combination effect with Compound A2 (combination index),MOLM-13 (MLL-AF9) cells,synergy
same,Combination effect with Compound A2 (combination index),MV4-11 (MLL-AF4) cells,synergy
COc1cc2c(cc1-c1c(C)noc1C)ncc1[nH]c(=O)n([C@H](C)c3ccccn3)c12 [IBET-151],Combination effect with Compound A2 (combination index),MV4-11 (MLL-AF4) cells,Synergy (A combination index less than one indicates synergy)
CC1(C)CCC(c2ccc(Cl)cc2)=C(CN2CCN(c3ccc(C(=O)NS(=O)(=O)c4ccc(N[C@H](CCN5CCOCC5)CSc5ccccc5)c(S(=O)(=O)C(F)(F)F)c4)cc3)CC2)C1 [Navitoclax],Combination effect with Compound A2 (combination index),MOLM-13 (MLL-AF9) cells,synergy
same,Combination effect with Compound A2 (combination index),MV4-11 (MLL-AF4) cells,synergy
CC(C)(C)c1cc(NC(=O)Nc2ccc(-c3cn4c(n3)sc3cc(OCCN5CCOCC5)ccc34)cc2)no1 [Quizartinib],Combination effect with Compound A2 (combination index),MV4-11 (MLL-AF4) cells,synergy
Nc1ccn([C@@H]2O[C@H](CO)[C@@H](O)[C@@H]2O)c(=O)n1 [Ara-C],Combination effect with Compound A2 (combination index),MV4-11 (MLL-AF4) cells,Synergy (A combination index less than one indicates synergy)
